For nine molecules, GI50 results are on record in patent publication US20250002473A1, “QUINOXALINE DERIVED SULFONAMIDES WITH EGFR DEGRADATION ACTIVITIES AND THEIR USES THEREOF” (Accutar Biotechnology Inc., priority 2023, published 2025).

What all share (format): cell-based
The test system of one assay is A431. The assay is described as follows: Cell growth inhibition assay (CellTiter-Glo), A431. Conditions: Homo sapiens, A-431, 72 h, Table 8; A431 cells, three days; read-out: A431 GI50. In outline:
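This growth inhibition assay reports GI50, the compound concentration producing 50% inhibition of cell growth relative to DMSO. Seeded cells (90 μL medium per well, 96-well Corning 3610 plates, overnight at 37° C.) received 10 μL of compound diluted 1:100 from a 1,000× DMSO stock. Luminescence was measured on Envision (PerkinElmer) and analyzed in GraphPad Prism 9.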
On the technique in general: Cellular ATP, detected with luciferase, serves as a proxy for viable cell number.

The test system of the next assay is NCI-H2073. Put plainly: Cell growth inhibition assay (CellTiter-Glo), NCI-H2073. Conditions: 72 h; Table 8; NCI-H2073 cells, three days. How it is done:
Cells were seeded in a 96-well plate (Corning 3610) with 90 μL of culture medium per well, and plates were incubated at 37° C. overnight. A 1,000× DMSO stock solution of the desired compound was prepared the following day. A compound dilution plate was prepared by diluting the stock solution 1:100 in the corresponding cell culture medium, 10 μL of the diluted compound solution was added to each 96-well plate well containing the seeded cells. […] The content of the wells was mixed by shaking continuously for 10 min, and luminescence was measured using Envision (PerkinElmer). The data were analyzed with GraphPad Prism 9 (see FIG. 50).
(§1) Table 6, Table 7, and Table 8 list the cell growth inhibition results, where Gls0 represents the compound concentration to cause 50% cell growth inhibition in comparison with DMSO.

Another assay deals with HCC827. Put plainly: Cell growth inhibition assay (CellTiter-Glo), HCC827. The note with it: Homo sapiens, 72 h, Table 8, HCC827 cells, three days. How it is done:
(§2) HCC827_LTC and HCC827_DTC cell lines were generated by first transducing HCC827 cells (ATCC) with lentiviral particles expressing codon-optimized human EGFR L858R/T790M/C797S (LTC) mutant or Del19/T790M/C797S (DTC) mutant, and then selecting under 5 μg/ml puromycin treatment for a week. The endogenous EGFR alleles were subsequently abolished using the Alt-R™ CRISPR-Cas9 technology (Integrated DNA Technologies). Single clones of HCC827_LTC and HCC827_DTC were selected and validated for endogenous EGFR knockout using Sanger sequencing.
(§3) Cells were seeded in a 96-well plate (Corning 3610) with 90 μL of culture medium per well, and plates were incubated at 37° C. overnight. A 1,000× DMSO stock solution of the desired compound was prepared the following day. A compound dilution plate was prepared by diluting the stock solution 1:100 in the corresponding cell culture medium, 10 μL of the diluted compound solution was added to each 96-well plate well containing the seeded cells. Then, the cells were cultured at 37° C. for three days following compound treatment, 100 μL of CellTiter-Glo reagents (Promega G7573) was added to each well of the 96-well plate. The content of the wells was mixed by shaking continuously for 10 min, and luminescence was measured using Envision (PerkinElmer). The data were analyzed with GraphPad Prism 9 (see FIG. 50).
as §1

For the next assay, the system named is HCC827_LTC. The assay is described as follows: Cell growth inhibition assay (CellTiter-Glo), HCC827_LTC. Conditions: 72 h; Table 8; HCC827 expressing human EGFR L858R/T790M/C797S, endogenous EGFR knockout, three days. The procedure:
as §2, §3, §1

The next assay relates to HCC827_DTC. Put plainly: Cell growth inhibition assay (CellTiter-Glo), HCC827_DTC. The note with it: 72 h; Table 8; HCC827 expressing human EGFR Del19/T790M/C797S, endogenous EGFR knockout, three days. How it is done:
as §2, §3, §1

Usually GI50 stands for the concentration giving 50% growth inhibition.

`COc1cc(N2CCC(N3CCN(CCc4cc(F)c(C5CCC(=O)NC5=O)c(F)c4)CC3)CC2)c(-c2cnn(C)c2)cc1Nc1ncc(Br)c(Nc2ccc3nccnc3c2NS(C)(=O)=O)n1` (stereo not drawn) [Compound 70, N-(6-((5-bromo-2-((4-(4-(4-(4-(2,6-dioxopiperidin-3-yl)-3,5-difluorophenethyl)piperazin-1-yl)piperidin-1-yl)-2-methoxy-5-(1-methyl-1H-pyrazol-4-yl)phenyl)amino)pyrimidin-4-yl)amino)quinoxalin-5-yl)methanesulfonamide]: the GI50 in the assay with A431 worked out at 160 nM; in the assay on NCI-H2073, 134 nM; in the assay on HCC827, 0.96 nM; with HCC827_LTC, 0.45 nM; in the assay with HCC827_DTC, 1.53 nM.

Take `COc1cc(N2CCC(N3CCN(CCc4ccc(NC5CCC(=O)NC5=O)cc4)CC3)CC2)c(-c2cnn(C)c2)cc1Nc1ncc(Br)c(Nc2ccc3nccnc3c2NS(C)(=O)=O)n1` (stereo not drawn) [Compound 78, N-(6-((5-bromo-2-((4-(4-(4-(4-((2,6-dioxopiperidin-3-yl)amino)phenethyl)piperazin-1-yl)piperidin-1-yl)-2-methoxy-5-(1-methyl-1H-pyrazol-4-yl)phenyl)amino)pyrimidin-4-yl)amino)quinoxalin-5-yl)methanesulfonamide]: the 50% growth inhibitory concentration (GI50) in the assay with A431 stood at 436 nM; in the assay with NCI-H2073, 403 nM; with HCC827, 1 nM; with HCC827_LTC, 1.81 nM; in the assay with HCC827_DTC, 1.96 nM.

For the molecule `COc1cc(N2CCN(C(=O)CN3CCC(c4ccc(NC5CCC(=O)NC5=O)cc4)CC3)CC2)c(-c2cnn(C)c2)cc1Nc1ncc(Br)c(Nc2ccc3nccnc3c2NS(C)(=O)=O)n1` (stereo not drawn) [Compound 79, N-(6-((5-bromo-2-((4-(4-(2-(4-(4-((2,6-dioxopiperidin-3-yl)amino)phenyl)piperidin-1-yl)acetyl)piperazin-1-yl)-2-methoxy-5-(1-methyl-1H-pyrazol-4-yl)phenyl)amino)pyrimidin-4-yl)amino)quinoxalin-5-yl)methanesulfonamide], the GI50 with A431 was determined as 164 nM; in the assay with NCI-H2073, 654 nM; with HCC827, 0.22 nM; in the assay with HCC827_LTC, 0.77 nM; in the assay on HCC827_DTC, 2.6 nM.

`COc1cc(N2CCN(C(=O)CN3CCN(c4ccc(NC5CCC(=O)NC5=O)cc4)CC3)CC2)c(-c2cnn(C)c2)cc1Nc1ncc(Br)c(Nc2ccc3nccnc3c2NS(C)(=O)=O)n1` (stereo not drawn) [Compound 80, N-(6-((5-bromo-2-((4-(4-(2-(4-(4-((2,6-dioxopiperidin-3-yl)amino)phenyl)piperazin-1-yl)acetyl)piperazin-1-yl)-2-methoxy-5-(1-methyl-1H-pyrazol-4-yl)phenyl)amino)pyrimidin-4-yl)amino)quinoxalin-5-yl)methanesulfonamide]: the GI50 in the assay with A431 amounted to 389 nM; with NCI-H2073 it was 721 nM; in the assay with HCC827, 6.81 nM; in the assay with HCC827_LTC, 11 nM; in the assay with HCC827_DTC it was 79.4 nM.

As to `COc1cc(N2CCC(N3CC4(CN(C(=O)CC5(O)CCN(c6ccc(NC7CCC(=O)NC7=O)cc6F)CC5)C4)C3)CC2)c(-c2cnn(C)c2)cc1Nc1ncc(Br)c(Nc2ccc3nccnc3c2NS(C)(=O)=O)n1` (stereo not drawn) [Compound 81, N-(6-((5-bromo-2-((4-(4-(6-(2-(1-(4-((2,6-dioxopiperidin-3-yl)amino)-2-fluorophenyl)-4-hydroxypiperidin-4-yl)acetyl)-2,6-diazaspiro[3.3]heptan-2-yl)piperidin-1-yl)-2-methoxy-5-(1-methyl-1H-pyrazol-4-yl)phenyl)amino)pyrimidin-4-yl)amino)quinoxalin-5-yl)methanesulfonamide], the GI50 in the assay on A431 is 746 nM; with NCI-H2073, above 3000 nM; in the assay on HCC827, 2.41 nM; with HCC827_LTC it was 2.03 nM; in the assay on HCC827_DTC, 4.21 nM.

In the case of `COc1cc(N2CCC(N3CCN(c4ccc5c(c4)C(=O)N(C4CCC(=O)NC4=O)C5=O)CC3)CC2)c(-c2cnn(C)c2)cc1Nc1ncc(Br)c(Nc2ccc3nccnc3c2NS(C)(=O)=O)n1` (stereo not drawn) [Compound 82, N-(6-((5-bromo-2-((4-(4-(4-(2-(2,6-dioxopiperidin-3-yl)-1,3-dioxoisoindolin-5-yl)piperazin-1-yl)piperidin-1-yl)-2-methoxy-5-(1-methyl-1H-pyrazol-4-yl)phenyl)amino)pyrimidin-4-yl)amino)quinoxalin-5-yl)methanesulfonamide], the GI50 with A431 was above 3000 nM; in the assay with NCI-H2073, above 3000 nM; in the assay with HCC827 it was 2.82 nM; with HCC827_LTC, 9.38 nM; with HCC827_DTC, 30.8 nM.

Take `COc1cc(N2CCC(CN3CCN(c4ccc5c(c4)C(=O)N(C4CCC(=O)NC4=O)C5=O)CC3)CC2)c(-c2cnn(C)c2)cc1Nc1ncc(Br)c(Nc2ccc3nccnc3c2NS(C)(=O)=O)n1` (stereo not drawn) [Compound 83, N-(6-((5-bromo-2-((4-(4-((4-(2-(2,6-dioxopiperidin-3-yl)-1,3-dioxoisoindolin-5-yl)piperazin-1-yl)methyl)piperidin-1-yl)-2-methoxy-5-(1-methyl-1H-pyrazol-4-yl)phenyl)amino)pyrimidin-4-yl)amino)quinoxalin-5-yl)methanesulfonamide]: the GI50 was above 3000 nM in the assay on A431; above 3000 nM with NCI-H2073; 5.51 nM with HCC827; 8.58 nM in the assay on HCC827_LTC; 19.4 nM in the assay with HCC827_DTC.

Consider `COc1cc(N2CCN(CC3CCN(c4ccc5c(c4)C(=O)N(C4CCC(=O)NC4=O)C5=O)CC3)CC2)c(-c2cnn(C)c2)cc1Nc1ncc(Br)c(Nc2ccc3nccnc3c2NS(C)(=O)=O)n1` (stereo not drawn) [Compound 84, N-(6-((5-bromo-2-((4-(4-((1-(2-(2,6-dioxopiperidin-3-yl)-1,3-dioxoisoindolin-5-yl)piperidin-4-yl)methyl)piperazin-1-yl)-2-methoxy-5-(1-methyl-1H-pyrazol-4-yl)phenyl)amino)pyrimidin-4-yl)amino)quinoxalin-5-yl)methanesulfonamide], for which the GI50 was above 3000 nM with A431; above 3000 nM in the assay on NCI-H2073; 1.18 nM with HCC827; 3.06 nM in the assay on HCC827_LTC; 10.7 nM with HCC827_DTC.

As to `COc1cc(N2CCC(N3CCN(CC4CCN(c5ccc6c(c5)C(=O)N(C5CCC(=O)NC5=O)C6=O)CC4)CC3)CC2)c(-c2cnn(C)c2)cc1Nc1ncc(Br)c(Nc2ccc3nccnc3c2NS(C)(=O)=O)n1` (stereo not drawn) [Compound 85, N-(6-((5-bromo-2-((4-(4-(4-((1-(2-(2,6-dioxopiperidin-3-yl)-1,3-dioxoisoindolin-5-yl)piperidin-4-yl)methyl)piperazin-1-yl)piperidin-1-yl)-2-methoxy-5-(1-methyl-1H-pyrazol-4-yl)phenyl)amino)pyrimidin-4-yl)amino)quinoxalin-5-yl)methanesulfonamide], the GI50 is above 3000 nM in the assay on A431; above 3000 nM in the assay with NCI-H2073; 2.72 nM in the assay on HCC827; 3.57 nM in the assay on HCC827_LTC; 7.7 nM in the assay with HCC827_DTC.
